Experimental data: patent US9745288B2, “Compounds and methods for treating cancer by inhibiting the urokinase receptor” (Indiana University Research and Technology Corporation, priority 2011, dated 2017)

What was measured:
MDA-MB-231 cells [1] = assay: Migration assay (Boyden chamber without Matrigel); format: cell-based; conditions: Homo sapiens
Experimental: Invasion and Migration Assays. These assays were performed using BD BioCoat Matrigel Invasion Chamber (Cat. 354480, BD Biosciences, Bedford, Mass.). The undersurface of the inserts was coated with 30 μg/mL of fibronectin (Sigma, F2006) in PBS at 4° C. overnight. The inserts were washed with PBS once. Then, 0.5 mL of serum-free medium was separately added to the upper and lower chambers to equilibrate the Matrigel invasion chambers at 37° C., 5% CO2 for 2 hours. After starvated with serumfree DMEM or 4 hours, subconfluent MDA-MB-231 cells were trypsinized and resuspended in 0.1% FBS DMEM. 5×10^4 cells in 500 μL of 0.1% FBS DMEM containing various compounds or 1.0% DMSO (as control) were added to the upper chambers. […] We incubated the invasion chambers for 3 hours at 37° C., 5% CO2. Non-invaded cells were removed from the upper chamber with a cotton swab. The invaded cells were fixed with 100% methanol and then stained with Hematoxylin Stain Harris Modified Method (Fisher, SH30-500D). The filters were washed with water 3 times. Filters were air dried and the invaded cells were counted in ten randomly selected microscopic fields (×200 magnification). The experiment was performed in triplicate per group and shown by mean±SE.

TMD-231 cells = assay: TMD-231 mammary fat pad xenograft, tumor growth and lung metastasis; format: in vivo
Description: Mouse Xenograft Studies. NOD/SCID mice were obtained from the on-site breeding colony maintained by the In Vivo Therapeutics Core at the Indiana University Simon Cancer Center (IUSM, Indianapolis, Ind.) and maintained in pathogen-free conditions within the laboratory animal resources center (LARC) at the Indiana University School of Medicine according to an approved protocol by the Institutional animal care and use committee (IACUC) committee.
For metastasis studies, m.f.p. tumors were allowed to grow to approximately 100 mm^3 mice. Mice were assigned to treatment group based on average tumor size/weight. Following a recovery period of two days, mice received treatment of investigational drug (n=15) or a PBS solvent control (n=15). After four weeks mice were euthanized, the lungs were resected, fixed in formalin solution, sectioned, and stained with hematoxylin and eosin (H&E) for analysis. […] Tumor volume were be calculated as Length*Width^2/2 in millimeters.
TMD-231 cells were inoculated into the mammary fat pad of female NOD/SCID mice. Dosing was initiated at day 18 post implantation. Animals were randomized and treated with vehicle or with IPR-69 by daily oral gavage at a dose of 150 mg/kg (n=11). Tumor volumes were determined by caliper measurements on a […], and calculated according to the formula (α2×β)/2, where α is the shorter and β is the longer of the two dimensions. Tumor volumes were determined by caliper measurements on a weekly basis. The study was conducted over a period of 68 days. […] Once the tumor volume reached 30 mm^3 to 50 mm^3, animals were randomized and treated with vehicle alone as control or 150 mg/kg IPR-69 three times a week for 10 weeks by oral gavage. Tumor volumes were determined by caliper measurements obtained weekly. Over the course of the study, several mice were sacrificed to determine whether breast tumor cells had metastasized to the lungs. At the end of the study, control and experimental animals were sacrificed and organs (lungs) were removed and evaluated for the presence of tumors. The number and size of metastasis in two to five fields per sample were calculated. […] Briefly, percentage of staining was categorized as “0” if there was no nuclear/cytoplasmic expression, “1” for up to 10% positive tumor nuclei/cells, “2” for 11-20% and until a maximum score of “10”. Intensity was scored as “1+,” “2+,” and “3+” for weak, moderate and strong staining respectively.

MDA-MB-231 cells [2] = assay: Adhesion assay on fibronectin-coated wells; format: cell-based, human; conditions: Homo sapiens; MDA-MB-231, fibronectin
Experimental: Adhesion Assay. Quantitative cell adhesion assays were carried out in nontissue culture treated 96-well microtiter plates (Evergreen Scientific, Los Angeles, Calif.) which were coated with 15 μg/mL fibronectin (Sigma) for 1 h at room temperature. Fibronectin coated and uncoated control wells were blocked for 1 h with 3% heat denatured bovine serum albumin (BSA) at 37° C. Cells were split one day prior to the experiment to achieve a subconfluent culture. […] The wells were washed and the number of adherent cells was quantified by crystal violet staining at 570 nm.^19,20 The results were shown by means±SE.

[3] = In vivo PK study, plasma HPLC MS/MS; parameters: species or system mouse; conditions: mice
Experimental: Pharmacokinetics of the Leads in Rodents. A method to quantify IPR-69 in plasma was developed using HPLC-MS/MS (API 3200; Applied Biosystems). A 20 μL plasma sample was extracted with methyl tertiary butyl ether (MTBE) under neutral conditions (0.1 M phosphate buffer pH=7.4) using temazepam as the internal standard. The extract is evaporated, reconstituted with mobile phase and injected into the HPLC. The HPLC column is a C-8 50×4.6 mm 5-μm column and separation of UPR and temazepam occurred by a linear gradient mobile phase starting with acetonitrile:0.1% formic acid (10:90) and changing to 80:20. The m/z Q1 and Q3 settings on the API 3200 for UPR and temazepam are 418/297 and 301/255, respectively. The lower limit of quantification of IPR-69 is 1 ng/mL using 20 μL of plasma. A standard response curve of IPR-69 was created with concentrations that varied from 1 ng/mL to 1000 ng/mL using 300 ng/mL of temazepam for each sample. To determine drug concentrations of the lead inhibitors in the pharmacological models, the PK properties of the compounds in mice must be characterized. The PK of IPR-69 was determined in NOD/SCID mice following a single dose given PO. The study design used 3 mice per time point. Blood was collected at time intervals from 0 to 24 hours after dosing (8 time points), quantified by the procedure described above. Pharmacokinetic parameters for IPR-69 including area under the curve (AUC), area under the moment curve (AUMC), and t1/2 were estimated using non-compartmental methods with Excel®. The maximum plasma concentration (Cmax) and time of Cmax (tmax) were obtained from the data. The AUC from zero to infinity (AUC0-∞) was estimated from the AUC0-t (time zero to the last quantifiable concentration Clast) and the AUC from Clast to infinity, Clast/kel, where kel is the rate constant of elimination. The AUMC0-∞ was estimated by an analogous manner. The systemic clearance (Cl/F, where F=bioavailability) of IPR-69 was calculated from the dose and AUC0-∞. […]

[4] = system: different signaling molecules; assay: Western blot analysis of signaling; format: cell-based; conditions: n=1
Experimental: In light of the previously reported role of uPAR in signaling, the effect of IPR-993, IPR-737, IPR-81 and IPR-69 on signaling was studied by Western blot analysis (FIG. 23). A concentration-dependent study was carried out for IPR-737.

CYP2C9 = CYP2C9 (Homo sapiens, UniProt P11712); assay: Fluorescence-based CYP2C9 inhibition assay; conditions: human
Experimental: CYP metabolism was measured using a fluorescence-based assay designed by Cohen et al.,^41 recently implemented by Invitrogen (Carlsbad, Calif.).

Chain of CYP2C9 (P11712 whole entry): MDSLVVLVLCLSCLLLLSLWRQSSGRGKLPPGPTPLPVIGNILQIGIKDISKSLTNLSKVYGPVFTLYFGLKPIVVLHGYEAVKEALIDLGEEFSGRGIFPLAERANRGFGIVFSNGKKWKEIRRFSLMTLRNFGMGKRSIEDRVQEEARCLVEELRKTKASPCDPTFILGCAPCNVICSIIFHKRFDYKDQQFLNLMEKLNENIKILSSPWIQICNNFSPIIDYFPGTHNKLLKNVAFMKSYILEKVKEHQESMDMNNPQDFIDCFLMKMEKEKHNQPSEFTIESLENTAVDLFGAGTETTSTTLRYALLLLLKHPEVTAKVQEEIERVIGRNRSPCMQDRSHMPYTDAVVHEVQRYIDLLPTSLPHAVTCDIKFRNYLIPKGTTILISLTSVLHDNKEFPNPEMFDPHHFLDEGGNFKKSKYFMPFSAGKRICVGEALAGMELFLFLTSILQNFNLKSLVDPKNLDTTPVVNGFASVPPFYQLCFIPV

Cc1cc(C)cc(NC(=O)c2cnn(-c3ccc(C(C)C)cc3)c2C2CCNCC2)c1 [IPR-69, N-(3,5-dimethylphenyl)-1-(4-isopropylphenyl)-5-(piperidin-4-yl)-1H-pyrazole-4-carboxamide]
IC50 (MDA-MB-231 cells [1]): 40 µM
treated mice with metastatic lesions of score >2 (TMD-231 cells; 150 mg/kg oral gavage): 3
tumor volume at the end of the study (TMD-231 cells; 150 mg/kg oral gavage, average, 68 days): 779 mm^3
treated mice with signs of metastatic lesions in the lungs (TMD-231 cells; 150 mg/kg oral gavage, n=11): 3 out of 11
metastasis to the lungs (TMD-231 cells; compared with untreated mice): less extensive metastasis to the lungs
tolerability (TMD-231 cells; doses as high as 150 mg/kg, mice): well tolerated
IC50 (MDA-MB-231 cells [2]): 45 µM
half-life ([3]; NOD/SCID, mouse, plasma, estimated, single oral gavage of 50 mg/kg): ~2 h
oral bioavailability [3]: orally bioavailable
time of maximum level ([3]; single oral gavage of 50 mg/kg): approximately 5 hours
effect on signaling molecules [4]: did not seem to be much of an effect
inhibition of CYP2C9 (CYP2C9): little inhibition of CYP2C9
